Results as given in patent US11970474B2, “Substituted benzodiazoles and use thereof in therapy” (THOMAS HELLEDAYS STIFTELSE FÖR MEDICINSK FORSKNING, priority 2018, dated 2024).

How the values were obtained:
[1] = system: CCL2; assay: Mouse CCL2 assay in MLE12 cells; assay type: cell-based; settings: Mus musculus, MLE12, 30 h, MLE12 cells; TNF-α 20 ng/ml; supernatant after 30 hours; HTRF; read-out: CCL2 (EC50)
Outline: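 MLE12 mouse lung epithelial cells (7500/well, DMEM/F12 with 5% FBS) preincubated 1 h with compounds (6-point dose-response, duplicate), then stimulated with TNF-α (final 20 ng/ml) for 30 h at 37 °C. Secreted CCL2 measured by HTRF sandwich immunoassay (Ex330/Em620, 665 nm) against standard curve; IC50 from delta ratios.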

[2] = system: NB-4; assay: Cell viability assay (resazurin); assay type: cell-based; settings: Homo sapiens, 120 h, Cancer, acute promyelocytic leukemia, five day incubation
Description: (§1) A dilution series of compound or vehicle are transferred to 96-well plates. Cells are seeded into the plate (500-10,000 cells/well) in suitable media and incubated for five days in 5% CO2 at 37° C. Thereafter, resazurin (diluted in suitable medium or PBS) are added to a final concentration 10 μg/ml resazurin at 37° C. for 2-4 hours before measuring the fluorescence (Ex544/Em590), essentially as described (Riss, Terry L. et al., “Cell Viability Assays.” In Assay Guidance Manual, ed. G. Sitta Sittampalam, et al. Bethesda (Md.): Eli Lilly & Company and the National Center for Advancing Translational Sciences (2004) http://www.ncbi.nlm.nih.gov/books/NBK144065/).
(§2) The compounds to be tested are nano-dispensed in duplicate in 11 concentrations, directly in 384-well cell plates, with a final DMSO concentration<1%. Cells are seeded in cell plates, pre-dispensed with compounds (200-2500 cells/well in 50 μl). After three or five days culture in 5% CO2, 37° C., resazurin diluted in PBS is added, 10 μl/well, to a final concentration of 10 μg/ml and cells are incubated 2-4 hours before measuring fluorescence (Ex544/Em590), as described (ibid.). Results obtained for selected example compounds described herein on cancer- and non-transformed cell lines are provided in the table below (Table 3) and summarized in FIG. 1. Where indicated, combination indexes was measured with CompuSyn software (www.compusyn.com) by the method of Chou-Talalay (Chou, Ting-Chao., Cancer Research, 70(2), 440-46 (2010)).

[3] = system: Hec59; assay: Cell viability assay (resazurin); assay type: cell-based; settings: 120 h, Cancer, endometrioid adenocarcinoma, five day incubation
Description: as §1, §2

[4] = system: K562; assay: Cell viability assay (resazurin); assay type: cell-based; settings: Homo sapiens, 120 h, Cancer, Chronic Myelogenous Leukemia, five day incubation
Description: as §1, §2

[5] = system: Hec59 + Chr2; assay: Cell viability assay (resazurin); assay type: cell-based; settings: 120 h, Cancer, endometrioid adenocarcinoma, five day incubation
Description: as §1, §2

[6] = system: SW1271; assay: Cell viability assay (resazurin); assay type: cell-based; settings: 120 h, Cancer, Small Cell Lung Carcinoma, five day incubation
Description: as §1, §2

[7] = system: THP1; assay: Cell viability assay (resazurin); assay type: cell-based; settings: Homo sapiens, THP-1, 120 h, Cancer, Acute Monocytic Leukemia, five day incubation
Description: as §1, §2

[8] = system: BALB/c mice; assay: Recruitment of neutrophils to mouse airways; assay type: in vivo; settings: 25 mg/kg intraperitoneally; intranasal TNFα or lipopolysaccharide; lungs lavaged after 16 h
Description: Six- to 8-wk-old BALB/c mice (˜20 g; Harlan Sprague Dawley, San Diego, CA) were injected 25 mg/kg intraperitoneally 3 h before and at the time of intranasal TNF-α challenge essentially as described in Ba, Xueqing, et al., The Journal of Immunology, 192(5), 2384-94 (2014). To evaluate inflammation, bronchoalveolar lavage fluids (BALF) were collected 16 h after challenge, processed, cytospin slides were stained with Wright-Giemsa, and the number of neutrophils was counted. All experiments were performed according to the National Institutes of Health Guidelines for the Care and Use of Laboratory Animals.

| EC50 [1] | Structure (SMILES) | EC50 [2] | EC50 [3] | EC50 [4] | EC50 [5] | EC50 [6] | EC50 [7] | recruitment of neutrophils to mouse airways [8] |
| --- | --- | --- | --- | --- | --- | --- | --- | --- |
| 17 µM | O=C(Nc1ccc(Cl)c(Cl)c1)N1CCC(n2c(=O)[nH]c3c(-c4ccc(CO)nc4)cccc32)CC1 [Example 28, N-(3,4-dichlorophenyl)-4-{4-[6-(hydroxymethyl)pyridin-3-yl]-2-oxo-2,3-dihydro-1H-1,3-benzodiazol-1-yl}piperidine-1-carboxamide] | 11 µM | 11 µM | 21 µM | 17 µM | 25 µM | 19 µM |  |
| 15.4 µM | Cc1cc(NC(=O)N2CCC(n3c(=O)[nH]c4c(Br)cccc43)CC2)ccc1I [Example 50, 4-(4-Bromo-2-oxo-2,3-dihydro-1H-1,3-benzodiazol-1-yl)-N-(4-iodo-3-methylphenyl)piperidine-1-carboxamide] |  |  |  |  |  |  |  |

| Structure (SMILES) | EC50 [1] | EC50 [2] | EC50 [3] | EC50 [4] | EC50 [5] | EC50 [6] | EC50 [7] | recruitment of neutrophils to mouse airways [8] |
| --- | --- | --- | --- | --- | --- | --- | --- | --- |
| O=C(Nc1ccc(I)cc1)N1CCC(n2c(=O)[nH]c3c(Br)cccc32)CC1 [Example 13, 4-(4-Bromo-2-oxo-2,3-dihydro-1H-1,3-benzodiazol-1-yl)-N-(4-iodophenyl)piperidine-1-carboxamide] | 18.8 µM | 5 µM | 17 µM | 20 µM | 16 µM | 22 µM | 23 µM | reduces recruitment of neutrophils |
